Measured values: patent US12441704B2, “Compounds active towards nuclear receptors” (NUEVOLUTION A/S, priority 2019, dated 2025)
Where two headings read alike, the source gives them in different places.

Target: T1, RORγ ligand-binding domain fused to Gal4 (Homo sapiens, UniProt P51449)
T1 construct: Gal4 (galactose-responsive transcription factor); expressed in transfected cells; host or cells: HEK293
T1 sequence (P51449 269-508 limits assumed): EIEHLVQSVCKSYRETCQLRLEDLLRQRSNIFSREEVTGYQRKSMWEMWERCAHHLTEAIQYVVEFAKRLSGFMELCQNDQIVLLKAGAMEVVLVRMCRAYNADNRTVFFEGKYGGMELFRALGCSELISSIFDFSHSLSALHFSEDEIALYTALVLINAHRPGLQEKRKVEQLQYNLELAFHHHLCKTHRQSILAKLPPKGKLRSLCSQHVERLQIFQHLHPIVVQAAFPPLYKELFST
Experiment: RORγ Reporter Assay (Gal4)
Format: cell-based
Description: The HEK293 cell line is co-transfected transiently with two plasmids, one with the RORγ ligand-binding domain fused to galactose-responsive transcription factor (Gal4), and the other with the luciferase reporter gene and Gal binding sites (UAS). This construction allows to determine the RORγ activity in a cellular system through the measurement of luminescence.
A suspension of RORγ reporter cells was dispensed into plates and cultured 2 h at 37° C. and 5% CO2. Media formulation consisted in DMEM/F-12 medium (Gibco) supplemented with 10% heat inactivated FBS (Sigma-Aldrich), non-essential aminoacids (Sigma-Aldrich), 2 mM Glutamax (Gibco) and 100 U/mL penicillin (Sigma-Aldrich). Dose-response curves with compounds were prepared in 100% DMSO and further diluted 100-fold in culture medium. Compound solutions were added to the plate containing cells (final DMSO concentration of 0.1%) and incubated for 24 h at 37° C. and 5% CO2. Luciferase detection reagent was added to each well, and relative light units (RLUs) were quantified from each assay well using a plate reading luminometer.
Values of average RLU±S.D. were computed for all treatment sets, followed by the calculations of percent-reduction of RORγ activity in response to respective test compound. The following formula was used: activity=100*[1−[x test compound/average vehicle] where the theoretical minimum reduction (0% reduction).

[1] = HEK293 cells co-transfected with RORγ LBD-Gal4 and luciferase reporter, 24 h incubation, absolute EC50, read-out: EC50

| SMILES | EC50 [1] [nM] | further results |
| --- | --- | --- |
| NC(=O)CN1CC[C@](O)(CNc2ncnc(N(Cc3ccccc3F)C3CC3)c2F)[C@@H](O)C1 (relative stereo) [Example D5-10, rel-2-((3R,4R)-4-(((6-(cyclopropyl(2-fluorobenzyl)amino)-5-fluoropyrimidin-4-yl)amino)methyl)-3,4-dihydroxypiperidin-1-yl)acetamide] | > 1000 | – |
| NC(=O)CN1CCC(CO)(CNc2ncnc(N(Cc3ccc(C(F)(F)F)cc3)C3CC3)c2F)C(O)C1 (single isomer, unassigned) [Example C4-1-2, 2-(4-(((6-(Cyclopropyl(4-(trifluoromethyl)benzyl)amino)-5-fluoropyrimidin-4-yl)amino)methyl)-3-hydroxy-4-(hydroxymethyl)piperidin-1-yl)acetamide] | – | EC50 (compounds of the present disclosure, source: Table 2 herein, read-out: Gal4 assay EC50): < 100 nM |
| NC(=O)CN1CC[C@H](CNc2ncnc(N(Cc3cnc(C(F)(F)F)nc3)C3CCC3)c2F)[C@@H](O)C1 (single isomer, unassigned) [Example A7-18-1] | 140 | – |
| Cn1cnnc1C1(CNc2ncnc(N(Cc3ccc(C(F)(F)F)cc3)C3CC3)c2F)CCN(CC(N)=O)CC1 [Example A7-83, 2-(4-(((6-(Cyclopropyl(4-(trifluoromethyl)benzyl)amino)-5-fluoropyrimidin-4-yl)amino)methyl)-4-(4-methyl-4H-1,2,4-triazol-3-yl)piperidin-1-yl)acetamide] | > 1000 | – |
| NC(=O)CN1CC[C@@H](CNc2ncnc(N(Cc3ccc(OC(F)F)cc3F)C3CCC3)c2F)[C@H](O)C1 (stereo in doubt) [Example A7-15, rac-2-((3R,4R)-4-(((6-(cyclobutyl(4-(difluoromethoxy)-2-fluorobenzyl)amino)-5-fluoropyrimidin-4-yl)amino)methyl)-3-hydroxypiperidin-1-yl)acetamide] | 160 | – |
| NC(=O)CN1CC[C@H](CNc2ncnc(N(Cc3ccc(C(F)(F)F)cn3)C3CC3)c2F)[C@@H](F)C1 (relative stereo) [Example A7-04-2, rel-2-((3R,4R)-4-(((6-(cyclopropyl((5-(trifluoromethyl)pyridin-2-yl)methyl)amino)-5-fluoropyrimidin-4-yl)amino)methyl)-3-fluoropiperidin-1-yl)acetamide] | 89 | – |
| NC(=O)CN1CC[C@H](CNc2ncnc(N(Cc3ccc(C(F)(F)F)cc3F)C3CC3)c2F)[C@@H](O)C1 (racemic) [Example A7-22, rac-2-((3R,4R)-4-(((6-(cyclopropyl(2-fluoro-4-(trifluoromethyl)benzyl)amino)-5-fluoropyrimidin-4-yl)amino)methyl)-3-hydroxypiperidin-1-yl)acetamide] | 4 | – |
| CCN(Cc1ccc(C(F)(F)F)cc1)c1ncnc(NC[C@H]2CCN(CC(N)=O)C[C@@H]2O)c1F (single isomer, unassigned) [Example A7-21-1] | 9.3 | – |
| NC(=O)CN1CC[C@H](CNc2ncnc(N(Cc3cnc(C(F)(F)F)nc3)C3CCC3)c2F)[C@@H](O)C1 (single isomer, unassigned) [Example A7-18-2] | 82 | – |
| NC(=O)CN1CC[C@H](CNc2ncnc(N(Cc3ccc(C(F)(F)F)cc3)C3CCC3)c2F)[C@@H](O)C1 (stereo in doubt) [Example A7-16-2, rel-2-((3R,4R)-4-(((6-(cyclobutyl(4-(trifluoromethyl)benzyl)amino)-5-fluoropyrimidin-4-yl)amino)methyl)-3-hydroxypiperidin-1-yl)acetamide] | 22 | – |
| NC(=O)CN1CCC(F)(CNc2ncnc(N(Cc3ccc4c(c3)OCC(=O)N4)C3CC3)c2F)CC1 [Example A7-12] | 150 | – |
| CC(C)N(Cc1ccc(C(F)(F)F)cc1)c1ncnc(NC[C@H]2CCN(CC(N)=O)C[C@@H]2O)c1F (relative stereo) [Example A7-19-1, rel-2-((3R,4R)-4-(((5-fluoro-6-(isopropyl(4-(trifluoromethyl)benzyl)amino)pyrimidin-4-yl)amino)methyl)-3-hydroxypiperidin-1-yl)acetamide] | 40 | – |
| CC(C)N(Cc1ccc(C(F)(F)F)cc1)c1ncnc(NC[C@H]2CCN(CC(N)=O)C[C@@H]2O)c1F (racemic) [Example A7-19, rac-2-((3R,4R)-4-(((5-fluoro-6-(isopropyl(4-(trifluoromethyl)benzyl)amino)pyrimidin-4-yl)amino)methyl)-3-hydroxypiperidin-1-yl)acetamide] | 42 | – |

More lines, main results first:

| EC50 [1] [nM] | SMILES | further results |
| --- | --- | --- |
| 330 | NC(=O)CN1CC[C@@H](CNc2ncnc(N(Cc3ccc(C(F)F)nc3)C3CC3)c2F)[C@H](O)C1 (stereo in doubt) [Example A7-25, rac-2-((3R,4R)-4-(((6-(cyclopropyl((6-(difluoromethyl)pyridin-3-yl)methyl)amino)-5-fluoropyrimidin-4-yl)amino)methyl)-3-hydroxypiperidin-1-yl)acetamide] | – |
| 90 | CC(c1ccc(C(F)(F)F)cc1)N(c1ncnc(NCC2CCN(CC(N)=O)CC2)c1F)C1CC1 (stereo not shown) [Example A7-34, 2-(4-(((6-(cyclopropyl(1-(4-(trifluoromethyl)phenyl)ethyl)amino)-5-fluoropyrimidin-4-yl)amino)methyl)piperidin-1-yl)acetamide] | EC50 (compounds of the present disclosure, value from Table 2 herein, read-out: Gal4 assay EC50): < 100 nM |
| > 1000 | NC(=O)CN1CC[C@@H](CNc2ncnc(N(CCF)Cc3ccc(C(F)(F)F)cc3)c2F)[C@H](O)C1 (racemic) [Example A7-30, rac-2-((3R,4R)-4-(((5-fluoro-6-((2-fluoroethyl)(4-(trifluoromethyl)benzyl)amino)pyrimidin-4-yl)amino)methyl)-3-hydroxypiperidin-1-yl)acetamide] | – |
| 99 | CCN(Cc1ccc(-c2cnn(CCO)c2)cc1)c1ncnc(NC[C@@H]2CCN(CC(N)=O)C[C@H]2O)c1F (racemic) [Example A7-73, rac-2-((3R,4R)-4-(((6-(ethyl(4-(1-(2-hydroxyethyl)-1H-pyrazol-4-yl)benzyl)amino)-5-fluoropyrimidin-4-yl)amino)methyl)-3-hydroxypiperidin-1-yl)acetamide] | – |
| 16 | NC(=O)CN1CC[C@@](O)(CNc2ncnc(N(Cc3ccc(C(O)(C(F)(F)F)C(F)(F)F)cc3)C3CC3)c2F)[C@H](O)C1 (relative stereo) [Example D5-06, rel-2-((3R,4R)-4-(((6-(cyclopropyl(4-(1,1,1,3,3,3-hexafluoro-2-hydroxypropan-2-yl)benzyl)amino)-5-fluoropyrimidin-4-yl)amino)methyl)-3,4-dihydroxypiperidin-1-yl)acetamide] | – |
| 670 | NC(=O)CN1CCC(CNc2ncnc(N(Cc3ccc4c(c3)OCC(=O)N4)C3CC3)c2F)CC1 [Example A7-37] | – |
| 181 | NC(=O)CN1CCC(C(CO)Nc2ncnc(N(Cc3ccc(C(F)(F)F)cc3)C3CC3)c2F)CC1 (stereo not shown) [Example A7-87, 2-(4-(1-((6-(cyclopropyl(4-(trifluoromethyl)benzyl)amino)-5-fluoropyrimidin-4-yl)amino)-2-hydroxyethyl)piperidin-1-yl)acetamide] | – |
| 81 | NC(=O)CN1CC[C@@H](CNc2ncnc(N(Cc3ccc(C(F)(F)F)nc3)C3CCC3)c2F)[C@H](O)C1 (single isomer, unassigned) [Example A7-23-1] | – |
| 17 | CC1CC(CNc2ncnc(N(Cc3ccc(C(F)(F)F)cc3)C3CC3)c2F)CCN1CC(N)=O (stereo not shown) [Example A7-48] | – |
| 43 | CCN(Cc1ccc(C(F)(F)F)cc1)c1ncnc(NC[C@@H]2CCN(C(CCO)C(N)=O)C[C@H]2O)c1F (relative stereo) [Example A7-67, rel-2-((3R,4R)-4-(((6-(ethyl(4-(trifluoromethyl)benzyl)amino)-5-fluoropyrimidin-4-yl)amino)methyl)-3-hydroxypiperidin-1-yl)-4-hydroxybutanamide] | – |
| 168 | NC(=O)CN1CC[C@@H](CNc2ncnc(N(Cc3ccc(C(F)(F)F)cc3)C3CC3)c2F)[C@@H](O)C1 (racemic) [Example A7-49, rac-2-((3R,4S)-4-(((6-(cyclopropyl(4-(trifluoromethyl)benzyl)amino)-5-fluoropyrimidin-4-yl)amino)methyl)-3-hydroxypiperidin-1-yl)acetamide] | – |
| 53 | NC(=O)CN1CCC(CNc2ncnc(N(Cc3ccc(C(F)(F)F)cc3)C3CC3)c2F)(c2nc[nH]n2)CC1 [Example A7-80, 2-(4-(((6-(Cyclopropyl(4-(trifluoromethyl)benzyl)amino)-5-fluoropyrimidin-4-yl)amino)methyl)-4-(1H-1,2,4-triazol-3-yl)piperidin-1-yl)acetamide] | – |
| 150 | NC(=O)CN1CCC(N)(CNc2ncnc(N(Cc3ccc(C(F)(F)F)cc3)C3CC3)c2F)CC1 [Example E6-1, 2-(4-Amino-4-(((6-(cyclopropyl(4-(trifluoromethyl)benzyl)amino)-5-fluoropyrimidin-4-yl)amino)methyl)piperidin-1-yl)acetamide] | – |
| 3.4 | NC(=O)CN1CC[C@H](CNc2ncnc(N(Cc3ccc(C(F)(F)F)cc3F)C3CC3)c2F)[C@@H](O)C1 (single isomer, unassigned) [Example A7-22-2] | – |
